The values that follow come from paper PMC5672791 (Journal of medicinal chemistry, 2015).

Test [1] addresses T1, mMC3R (Mus musculus, UniProt P33033). The test is classed as cell-based.
The target of test [2] is T2, mMC5R (Mus musculus, UniProt P41149). Kind of test: cAMP based β-galactosidase reporter assay, agonist activity at mMC5R. The test is classed as cell-based. To be noted: read-out: mMC5R Agonist EC50; HEK-293 cells, CRE/β-galactosidase reporter; mean ± SEM.
The target in test [3] is T3, mMC4R (Mus musculus, UniProt P56450). In kind it is cell-based.
The target in test [4] is T1, mMC3R. The experiment in a line: cAMP based β-galactosidase reporter assay. The test is classed as cell-based. To be noted: Figure 1. A general note: A reporter such as luciferase makes a cellular process visible.
The target of test [5] is T4, mMC1R (Mus musculus, UniProt Q01727). The experiment in a line: cAMP based β-galactosidase reporter assay, agonist activity at mMC1R. In kind it is cell-based.
T4 sequence (Q01727 whole entry): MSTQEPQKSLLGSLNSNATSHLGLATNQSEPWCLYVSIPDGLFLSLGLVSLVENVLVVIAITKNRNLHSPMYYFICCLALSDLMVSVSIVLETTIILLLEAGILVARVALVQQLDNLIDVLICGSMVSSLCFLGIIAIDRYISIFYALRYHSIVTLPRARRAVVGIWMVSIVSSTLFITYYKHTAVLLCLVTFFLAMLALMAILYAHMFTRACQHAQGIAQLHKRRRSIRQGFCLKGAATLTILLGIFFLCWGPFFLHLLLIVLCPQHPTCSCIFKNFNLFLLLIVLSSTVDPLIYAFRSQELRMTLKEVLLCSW
The test system of test [6] is mMC4R mutations (E92K, F253S). To be noted: cited from earlier work.
Test [7] concerns mMC4R F176K. To be noted: mutation F176K; cited from earlier work.
Test [8] relates to hMC4R. To be noted: cited from earlier work.
Test [9] deals with hMC3R. To be noted: cited from earlier work.
For test [10], the system named is MC4R. To be noted: cited from earlier work.
In test [11] the target is T3, mMC4R. To be noted: cited from earlier work; for Ki: read-out: mMC4R Ki, Ki=10^-pA2, previously reported values.
Test [12] has as its target T1, mMC3R. To be noted: cited from earlier work.
Test [13] addresses T2, mMC5R. To be noted: read-out: mMC5R Agonist EC50; previously reported values; cited from earlier work.
Test [14] concerns the target T4, mMC1R. To be noted: read-out: mMC1R Agonist EC50; previously reported values; cited from earlier work.
Test [15] has as its target mMC3R (Mus musculus) (UniProt P33033). The experiment in a line: Schild analysis. To be noted: cited from earlier work.
For test [16], the target named is mMC4R (Mus musculus) (UniProt P56450). Kind of test: Schild analysis. To be noted: cited from earlier work.
Test [17] addresses T5, mMC4R (Mus musculus, UniProt P56450).
T5 chain: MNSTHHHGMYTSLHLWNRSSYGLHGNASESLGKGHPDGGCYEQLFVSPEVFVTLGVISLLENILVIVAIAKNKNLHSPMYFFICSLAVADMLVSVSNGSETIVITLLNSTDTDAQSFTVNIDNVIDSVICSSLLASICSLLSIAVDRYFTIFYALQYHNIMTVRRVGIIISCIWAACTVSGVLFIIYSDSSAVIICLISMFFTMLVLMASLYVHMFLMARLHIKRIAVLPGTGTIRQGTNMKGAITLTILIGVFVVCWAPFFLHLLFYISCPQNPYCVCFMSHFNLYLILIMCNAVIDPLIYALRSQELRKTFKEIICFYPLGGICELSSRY
The experiment in a line: Schild analysis.

Test [18] has as its target T6, mMC3R (Mus musculus, UniProt P33033).
T6 chain: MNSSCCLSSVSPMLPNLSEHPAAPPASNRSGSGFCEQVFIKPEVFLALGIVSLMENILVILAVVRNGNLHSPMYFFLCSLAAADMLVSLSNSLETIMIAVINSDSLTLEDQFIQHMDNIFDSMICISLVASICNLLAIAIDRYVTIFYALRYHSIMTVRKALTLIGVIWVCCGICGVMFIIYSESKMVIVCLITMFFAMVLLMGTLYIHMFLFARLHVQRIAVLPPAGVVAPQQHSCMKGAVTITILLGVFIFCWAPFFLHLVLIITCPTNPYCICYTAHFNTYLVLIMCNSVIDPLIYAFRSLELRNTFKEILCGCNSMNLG
The experiment in a line: Schild analysis.

Setting [19] is: Schild analysis, agonist MTII, mean ± SEM.

“Also recorded” adds a separate entry of the source. Read-outs that look alike come from different tables or passages of the source. Where a SMILES comes first, the peptide text is derived from it. Bridges are numbered along the chain shown (N, C = ends). Where no end group is shown, it is not given here. [ ]: non-standard residue; d: D form. Bip = N[C@@H](Cc1ccc(-c2ccccc2)cc1)C(=O)O

T2 sequence (P41149 whole entry): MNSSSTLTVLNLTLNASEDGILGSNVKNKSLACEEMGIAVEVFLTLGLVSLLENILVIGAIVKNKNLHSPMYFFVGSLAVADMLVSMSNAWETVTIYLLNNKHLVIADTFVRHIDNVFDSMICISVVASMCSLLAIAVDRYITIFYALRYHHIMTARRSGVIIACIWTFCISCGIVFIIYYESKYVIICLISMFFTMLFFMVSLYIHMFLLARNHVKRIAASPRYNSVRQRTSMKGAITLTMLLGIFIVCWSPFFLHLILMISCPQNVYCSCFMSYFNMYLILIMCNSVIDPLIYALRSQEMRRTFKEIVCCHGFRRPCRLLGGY

For orientation: EC50 means the concentration that produces a half-maximal response. Regarding `C[C@@H]1NC(=O)[C@H](Cc2ccccc2)NC(=O)[C@H](C)NC(=O)[C@H](CC(N)=O)NC(=O)[C@H](Cc2ccccc2)NC(=O)[C@H](Cc2ccccc2)NC(=O)[C@H](CCCNC(=N)N)NC(=O)[C@H](C)NC(=O)[C@H](Cc2ccc(O)cc2)NC(=O)[C@@H]2CCCN2C(=O)[C@H]2CCCN2C(=O)[C@H](Cc2ccc(O)cc2)NC1=O` [Peptide 4], the “no activity at the mMC3R up to (concentration)” value (“no activity at the mMC3R up” for short) in test [1] was above 100 µM. The “mMC3R antagonist pA2” value in [1] (setting [19]) is >100,000. Further, in test [2], the EC50 was above 100 µM. Also, in [3], the “no activity at the mMC4R up to (concentration)” value was above 100 µM. For the same molecule, the “mMC4R antagonist pA2” value in test [3] (setting [19]) was >100,000.

The Ki is a measure of affinity in units of concentration, obtained from inhibition or displacement. For the molecule `C[C@@H]1NC(=O)[C@H](CC(N)=O)NC(=O)[C@H](Cc2ccccc2)NC(=O)[C@H](Cc2ccccc2)NC(=O)[C@H](CCCNC(=N)N)NC(=O)[C@H]([C@@H](C)O)NC(=O)[C@H](Cc2ccc(O)cc2)NC(=O)[C@@H]2CCCN2C(=O)[C@H]2CCCN2C(=O)[C@H](Cc2ccc(O)cc2)NC(=O)[C@H]([C@@H](C)O)NC(=O)[C@H](Cc2ccccc2)NC1=O` [Peptide 5] (cyclo(YTRFFNAFTY[dP]P)), the 50% effective concentration (EC50) in test [2] is above 100 µM. In [3], the Ki stood at 160 nM.

Take `C[C@@H]1NC(=O)[C@H](CC(N)=O)NC(=O)[C@H](Cc2ccccc2)NC(=O)[C@H](Cc2ccccc2)NC(=O)[C@H](CCCNC(=N)N)NC(=O)[C@@H]2CCCN2C(=O)[C@H]2CCCN2C(=O)[C@H](Cc2ccccc2)NC1=O` [Peptide 6, c[Pro-Arg-Phe-Phe-Asn-Ala-Phe-DPro]]: the “partial agonist activity at the mMC3R” value in test [4] is reported as “lack of agonist activity; also recorded: without any partial agonist activity”.

For the molecule `C[C@@H]1NC(=O)[C@H](CC(N)=O)NC(=O)[C@H](Cc2ccccc2)NC(=O)[C@H](Cc2ccc(-c3ccccc3)cc2)NC(=O)[C@H](CCCNC(=N)N)NC(=O)[C@@H]2CCCN2C(=O)[C@H]2CCCN2C(=O)[C@H](Cc2ccccc2)NC1=O` [Peptide 7, c[Pro-Arg-Bip-Phe-Asn-Ala-Phe-DPro]] (cyclo(R[Bip]FNAF[dP]P)), in test [5], the “fold more potent agonist at the mMC1R compared to 6” value is 5 fold. Further, the “fold decreased antagonist potency at the mMC4R compared to 6” value (from here on “fold decreased antagonist potency”) in [3] is listed as 8 fold.

Take `C[C@@H]1NC(=O)[C@H](CC(N)=O)NC(=O)[C@H](Cc2ccc(-c3ccccc3)cc2)NC(=O)[C@H](Cc2ccccc2)NC(=O)[C@H](CCCNC(=N)N)NC(=O)[C@@H]2CCCN2C(=O)[C@H]2CCCN2C(=O)[C@H](Cc2ccccc2)NC1=O` [Peptide 14, c[Pro-Arg-Phe-Bip-Asn-Ala-Phe-DPro]]: in test [1], the “no activity at the mMC3R up” value was above 100 µM. For the same molecule, the “fold more potent agonist at the mMC1R compared to 6” value in [5] is 10 fold. Moreover, the “fold decreased antagonist potency” value in test [3] stood at 8 fold.

`C[C@@H]1NC(=O)[C@H](CC(N)=O)NC(=O)[C@H](c2ccccc2)NC(=O)[C@H](Cc2ccccc2)NC(=O)[C@H](CCCNC(=N)N)NC(=O)[C@@H]2CCCN2C(=O)[C@H]2CCCN2C(=O)[C@H](Cc2ccccc2)NC1=O` [Peptide 16, c[Pro-Arg-Phe-Phg-Asn-Ala-Phe-DPro]]: the “no activity at the mMC3R up” value in test [1] was above 100 µM. Besides, the “fold decreased potency at the mMC1R compared to 6” value in test [5] stood at 4 fold. Further, the “fold decreased antagonist potency” value in [3] was 65 fold.

With `C[C@@H]1NC(=O)[C@H](CN)NC(=O)[C@H](Cc2ccccc2)NC(=O)[C@H](Cc2ccccc2)NC(=O)[C@H](CCCNC(=N)N)NC(=O)[C@@H]2CCCN2C(=O)[C@H]2CCCN2C(=O)[C@H](Cc2ccccc2)NC1=O` [Peptide 22, c[Pro-Arg-Phe-Phe-Dap-Ala-Phe-DPro]], the “partial agonist activity at the mMC3R” value in test [4] is “did not result in partial agonist activity”.

As to “AGRP(83-132): C-terminal AGRP(83-132) peptide (SSRRCVRLHESCLGQQVPCCDPCATCYCRFFNAFCYCRKLGTAMNPCSRT; UniProt O00253 83-132, looked up, fragment)”, the “binding to mMC4R mutations E92K, F253S” value in test [6] is “unable to bind”. Also, the “loss of antagonist potency at mMC4R F176K” value in [7] is reported as “complete loss of activity”.

What is called IC50 is the point on the concentration scale where inhibition reaches its midpoint. In the case of “Ac-c[Cys-Arg-Phe-Phe-Asn-Ala-Phe-Cys]-NH2 [AGRP(110-117)]”, the “fold lower hMC4R binding affinity than AGRP(83-132)” value in test [8] (compared to C-terminal AGRP(83-132)) is given as “approximately 36 fold”. Also, the IC50 in test [8] (read-out: IC50 binding affinity at the hMC4R) was 127 nM. Further, the “binding affinity at the hMC3R” value in test [9] is “no detectable binding”.

Take HS024: in test [10], the “selectivity for the MC4R compared to the MC3R” value is “approximately 20 fold”.

As to “TAYCRFFNAFCYAR-NH2 (disulfide 4-11) [hAGRP(107-120)]”, the “mMC4R antagonist pA2” value in test [11] is given as 6.6. The “mMC3R antagonist pA2” value in test [12] is given as 6.1.

For “Tyr-c[Cys-Arg-Phe-Phe-Asn-Ala-Phe-Cys]-Tyr (YCRFFNAFCY; bridge 2-9; not fully specified (bridges)) [hAGRP (109-118)]”, the results for the EC50 in test [13] and in test [14] were above 100 µM and 5.1 ± 3 µM, respectively. Also, the Ki in test [11] is 160 nM.

For the molecule “hAGRP (87–132): C-terminal domain of human Agouti-related protein, stabilized by five disulfide bonds”, the EC50 in test [13] and in [14] was above 100 µM throughout. In addition, the “mMC4R antagonist pA2” value in test [11] was 9.4; in test [11] (previously reported values) it was 9.4±1.0. Moreover, the Ki in test [11] was 0.4 nM. The “mMC3R antagonist pA2” value in [12] is on record as 8.9; in test [12] (previously reported values), 8.9±0.2.

As to “hAGRP(87-132) 87-132 (from UniProt O00253)”, the Ki in test [15] was 1.3 nM; in test [16] it was 0.4 nM.

In the case of “miniAGRP (87-120): engineered minimized derivative of AGRP(87-132) with 4 disulfide bonds and the C-terminal 12 residues removed (CVRLHESCLGQQVPCCDPAATCYCRFFNAFCYCR)”, the EC50 in test [13] and in test [14] was above 100 µM each time.

Turning to “miniAGRP(87-120) 87-120 (from UniProt O00253)”, the Ki was 7.9 nM in [15] and 3.2 nM in test [16].

As to cyclo(PRFFKAF[dP]) [peptide 25], the figures for the inhibition constant (Ki) in test [17] and in test [18] were 5 nM and 100 nM, respectively.

Molecule cyclo(PRFFGAF[dP]) [peptide 21] registered a Ki in [17] of 4 nM.

B1: peptide 5 (peptide)
chain: cyclo(PYTRFFNAFTY[dP])
SMILES: C[C@@H]1NC(=O)[C@H](CC(N)=O)NC(=O)[C@H](Cc2ccccc2)NC(=O)[C@H](Cc2ccccc2)NC(=O)[C@H](CCCNC(=N)N)NC(=O)[C@H]([C@@H](C)O)NC(=O)[C@H](Cc2ccc(O)cc2)NC(=O)[C@@H]2CCCN2C(=O)[C@H]2CCCN2C(=O)[C@H](Cc2ccc(O)cc2)NC(=O)[C@H]([C@@H](C)O)NC(=O)[C@H](Cc2ccccc2)NC1=O
The molecule B1 gave a Ki in test [18] of 1300 nM.

Regarding cyclo(PRFFRAF[dP]) [peptide 26], the Ki in test [17] was 4 nM; in test [18], 200 nM.
